One series has as its system Human tumor MDA-MB-231. Nature of the series: Whole-body fluorescence imaging of nude mice bearing MDA-MB-231 tumor. It is filed as in vivo, mouse. As to conditions: 100 μl of 50 μM into tail vein, 3 mm tumor; time point not stated. The method, then:
To study the pHLIP distribution in vivo, covalently attached to the pHLIP near […] infrared fluorescent dye Cy5.5 was injected into mice bearing tumor and performed whole-body fluorescence imaging. Human tumor MDA-MB-231 was originated by injection of tumor cells (2×10^7 cells/flank/0.2 ml) in the right flank of adult athymic female nude mice. When the tumor reached the size of 3 mm in diameter, 100 μl of 50 μM of Cy5.5 alone or Cy5.5 covalently attached to the pHLIP was given as a single injection into vein tail. The imaging was performed immediately, after 1, 2, 4 hour and next day after 24 hours (FIGS. 9 and 10). The dye and peptide-dye accumulated in liver and kidney, the organs, which usually readily absorb any compounds. The ratios of (liver+kidney)/tumor were 5.9 and 3.6 in mice to which dye alone and pHLIP-dye were injected accumulation for mice. […] The accumulation of pHLIP-Cy5.5 in tumor was in 1.6 times higher than accumulation of dye alone. The ration of (liver+kidney)/tumor was 1.6 and 2.6 for pHLIP-Cy5.5 and Cy5.5 alone, respectively.
Human breast adenocarcinoma MDA-MB-231 (HTB-26, ATCC) cells was cultured in Leibovitz's L-15 medium supplemented with 10% fetal bovine serum, 100 units/ml penicillin, 0.1 mg/ml streptomycin, 2 mM glutamine in humidified atmosphere of 5% CO2 and 95% air at 37° C. […]

Series [1] has as its system HeLa cells. To be noted: literature report; cited from earlier work.
Another series relates to actin filaments. To be noted: cited from earlier work.
Series [2] concerns HeLa cells. Nature of the series: Cytotoxicity assay (CellTiter 96 AQueous One colorimetric). It is filed as cell-based, human. To be noted: concentrations up to 16 μM, 24 hrs, physiological conditions. The method, then: (§1) The peptide's cytotoxicity and its ability to induce membrane leakage was investigated. […] Membrane leakage was tested by incubation of HeLa cells at various concentrations of peptide (up to 10 μM) at pH 7.4 and 6.5 for 1 hr, followed by the addition of cell-impermeable agents: Phalloidin-TRITC and nuclear-staining SYTOX-Orange. […] The uptake of Phalloidin-TRITC or SYTOX-Orange was 10 times less than the uptake in cells treated with triton, which used for cell membrane permeabilization.
Cytotoxicity was tested using a standard colorimetric assay according to an established protocol provided by Promega, Inc. HeLa cells were loaded in the wells of 96 well plates (20,000 cells per well), incubated for 24 hours in DMEM supplemented with 10% FBS, 100 units/ml penicillin, 0.1 mg/ml streptomycin, 2 mM glutamine in a humidified atmosphere of 5% CO2 and 95% air at 37° C. The growth medium was then replaced with the same medium but containing 1% of FBS and increasing amounts of pHLIP (0.5, 1, 2, 4, 8 and 16 μM). After 24 hours of incubation, the solution was replaced with DMEM and a colorimetric reagent (CellTiter 96 AQueous One Solution Assay) was added for 1 hour followed by measuring absorbance at 490 nm in the plate-reader. All samples were prepared in triplicate.

Series [3] concerns HeLa cells. Nature of the series: Membrane leakage assay with cell-impermeable Phalloidin-TRITC and SYTOX-Orange. The class given is cell-based, human. To be noted: peptide up to 10 μM, 1 hr, pH 6.5 or 7.4. The method, then: as §1
HeLa cells were loaded in 96 well plates (2,000 cells per well), incubated for 24 hours in DMEM supplemented with 10% FBS, 100 units/ml penicillin, 0.1 mg/ml streptomycin, 2 mM glutamine in a humidified atmosphere of 5% CO2 and 95% air at 37° C. The growth medium was then replaced with PBS buffer containing 1 mM CaCl2 and 1 mM MgCl2 at pH7.4 or 6.5 and increasing amounts of the peptide (0.5, 2, 5 and 10 μM). After 1 hour, 2 μM of Phalloidin-TRITC and 0.5 μM of SYTOX-Orange (Molecular Probes) were added for 10 min and, then, washed with PBS buffer, pH7.4. The rhodamine fluorescence was measured at 580 nm with excitation at 544 nm by plate-reader. The cell membrane was subsequently disrupted by adding 0.5% Triton-100 and a new portion of the 2 μM of Phalloidin-TRITC and 0.5 μM of SYTOX-Orange followed by washing with PBS. The fluorescence signal was detected before and after washing, respectively. […]

The subject of the next series is mice. Nature of the series: Toxicity study in mice, single intravenous injection. The class given is in vivo, mouse. As to conditions: single intravenous injection 4 mg/kg, female and male mice, observed 6 weeks. The method, then: Preliminary toxicity study was carried out. 100 μl of 150 μM of peptide was given as a single injection in vein tail to 4 female C3D2F1 and 4 male C57/B1 mice. The final concentration was 4 mg/kg. Mice were observed by a veterinarian the day after an injection and during the next 6 weeks.

Series [4] concerns HeLa cells. Nature of the series: Translocation and release of Phalloidin-TRITC in HeLa cells (fluorescence microscopy of actin filaments). The class given is cell-based, human. As to conditions: pH 6.0-7.4, in the presence or absence of peptide (not conjugated). The text has this: To test the ability of pHLIP to translocate peptides across the cell membrane a water soluble cyclic peptide, phalloidin, from the Amanita phalloicles mushroom was chosen. […] Fluorescent phalloidin is commonly used to label actin filaments in permealized cells. Actin filaments stained with fluorescent phalloidin have an easily recognizable filamentous pattern, which cannot be mistaken for the other cellular structures, organelles or membrane staining. Therefore the delivery of fluorescent phalloidin by pHLIP into live cells can easily be verified by fluorescence microscopy. Fluorescently labeled phalloidin (Phalloidin-TRITC) via an S-S bond to the C-terminus of pHLIP was conjugated using a bifunctional cross-linker. Cells were incubated with a pHLIP-S-S-Phalloidin-TRITC cleavable construct at different pHs and subsequently washed with cell culture medium solution, pH 7.4. […]
For the fluorescence microscopy studies, the cells were grown in 35 mm dishes with 10 mm glass bottom windows coated with collagen. […] The medium pH was measured before and after incubation. […] Fluorescent images were taken using an inverted epi-fluorescence microscope Olympus IX71. […] Each time fluorescence microscopy experiments were performed and observed the translocation of cargo by pHLIP, it was verified that the labeled cells were alive by using of dead cell marker SYTOX-Green (Molecular Probes).

Series [5] has as its system HeLa cells. Nature of the series: Translocation of PNA into HeLa cells (fluorescence microscopy). The class given is cell-based, human. To be noted: PNA without pHLIP, pH 7.4 or 6.5 (data not shown).
In series [6] the test system is HeLa cells. Nature of the series: pH-dependent delivery of dansyl dye into live HeLa cells (fluorescence microscopy). It is filed as cell-based, human. To be noted: dye alone, without peptide. The method, then: pHLIP conjugated via a disulfide bond to dansyl dye (FIG. 3a) was tested for delivery of the dye into live HeLa cells at different pHs (FIG. 3b). The cells were incubated with the fluorescently-labeled peptide for 15 min at pH 5.5, 6.5, 7.0 or 7.4 and then washed at pH 7.4 to remove any reversibly bound peptide. […] The relative uptakes were 18%, 48%, 78% and 100% at pH7.4, 7.0, 6.5 and pH5.5, respectively.
For the fluorescence microscopy studies, the cells were grown in 35 mm dishes with 10 mm glass bottom windows coated with collagen. Cells were washed with PBS buffer containing 1 mM CaCl2 and 1 mM MgCl2 with pH 5.5, 6.5, 7.0 or 7.4 and then incubated in PBS at the experimental pH in the absence or presence of varied concentrations (0.1-7 μM) of the pHLIP-S-S-dansyl, pHLIP-dye (TexasRed or Rhodamine), pHLIP-S-S-Phalloidin-TRITC, pHLIP-Phalloidin-TRITC or pHLIP-S-S-PNA-TAMRA constructs. The medium pH was measured before and after incubation. The time of incubation was varied from 15 to 60 min. […] Fluorescent images were taken using an inverted epi-fluorescence microscope Olympus IX71. […] Each time fluorescence microscopy experiments were performed and observed the translocation of cargo by pHLIP, it was verified that the labeled cells were alive by using of dead cell marker SYTOX-Green (Molecular Probes).

Starred links: 1 amine or outer side, 2 acyl side, 3 side chain; linkers in the order of their positions; H or OH if unused. Positions of bridges follow the written chain, without caps; N, C: chain ends. Non-standard residues stand in square brackets, D forms with d. Residues, ends and D or L forms follow the SMILES beside them. No end group written: not given here. Trp(2-yl) = O=C([C@H](Cc1c([*:3])[nH]c2ccccc12)N[*:1])[*:2]; {TAMRA} = TAMRA dye attached N-terminally via two o linkers; {Cys} = C-terminal o linker then cysteine amide; Leu(4R-OH,5-OH) = C[C@](O)(CO)C[C@H](N)C(=O)O; cisHyp = O=C(O)[C@@H]1C[C@H](O)CN1

Take `CCN1\C(=C/C=C/C=C/C2=[N+](CCCCCC(=O)O)c3ccc4c(S(=O)(=O)O)cc(S(=O)(=O)O)cc4c3C2(C)C)C(C)(C)c2c1ccc1c(S(=O)(=O)[O-])cc(S(=O)(=O)O)cc21` [Cy5.5]: in the series with Human tumor MDA-MB-231, the “ratio of (liver+kidney)/tumor, first statement” value is on record as 5.9 and the “ratio of (liver+kidney)/tumor, second statement” value worked out at 2.6.

For `C/C1=C\[C@H](C)C[C@H](C)OC(=O)C[C@H](c2ccc(O)cc2)NC(=O)[C@@H](Cc2c(Br)[nH]c3ccccc23)N(C)C(=O)[C@H](C)NC(=O)[C@@H](C)C1` [Jasplakinolide], the “multinucleation of cells (reported)” value with HeLa cells [1] is recorded as “appearance of multinucleated cells”.

Take `C[C@@H]1NC(=O)[C@H](C[C@@](C)(O)CO)NC(=O)[C@@H]2Cc3c([nH]c4ccccc34)SC[C@H](NC(=O)[C@@H]([C@H](C)O)NC1=O)C(=O)N1C[C@@H](O)C[C@H]1C(=O)N[C@@H](C)C(=O)N2` [Phalloidin] (cyclo(A[dT]C[cisHyp]A[Trp(2-yl)][Leu(4R-OH,5-OH)]); thioether 3-6): the “lowering of the critical concentration for actin polymerization” value with actin filaments is “up to 30 fold”.

For the compound “AAEQNPIYWARYADWLFTTPLLLLDLALLVDADEGTCG [pHLIP]”, in the series with HeLa cells [2], the cell viability entry was “does not affect cell viability”. Further, in the series on HeLa cells [3], the “uptake of Phalloidin-TRITC or SYTOX-Orange in peptide-treated cells” value was “no increase in uptake” and the “uptake of Phalloidin-TRITC or SYTOX-Orange relative to cells treated with triton” value was determined as 10 times less. The “physiological and behavioral changes” value in the series with mice was “No physiological and behavioral changes”.

As to Phalloidin-TRITC, the “fluorescent staining of actin filaments” value with HeLa cells [4] is recorded as “did not give fluorescent staining of actin filaments”.

For “TAMRA-o-o-CATAGTATAAGT-o-Cys-NH2 (all peptide nucleic acid (PNA), 5' {TAMRA}, 3' {Cys}) [PNA-TAMRA]”, in the series with HeLa cells [5], the “translocation through the cell membrane” value is reported as “No translocation”.

On to dansyl, for which, in the series on HeLa cells [6], the penetration of cells result was “does not penetrate cells”.

The values are drawn from patent US9676823B2, “Selective delivery of molecules into cells or marking of cells in diseased tissue regions using environmentally sensitive transmembrane peptide” (priority 2005, dated 2017).
